Several values for one entry are separate records, joined by “and”; a condition that tells them apart may be missing. Equal entries are not always repeated. Toxic doses and inconclusive results are not listed. Cut-off read from the data, not from the text of the source: active = T/C of 150% or more; inactive = T/C below 125%.
Tested on: L1210 leukemia ip in BDF1 mice, survival T/C
Test: NCI In Vivo Anticancer Drug Screen. Data for tumor model L1210 Leukemia (intraperitoneal) in B6D2F1 (BDF1) mice
Conditions: endpoint: mean survival time, higher = longer survival
Method in brief: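 In this screen, tumor-bearing mice given compound are compared to those given vehicle, and their survival values are reported as a treated-to-control quotient.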

[1] = dose: 25.0 mg/kg/injection, schedule: Q01DX001 (ip), vehicle: saline
[2] = dose: 25.0 mg/kg/injection, schedule: Q01DX009 (ip), vehicle: saline
[3] = dose: 25.0 mg/kg/injection, schedule: Q04DX003 (ip), vehicle: saline
[4] = dose: 50.0 mg/kg/injection, schedule: Q01DX001 (ip), vehicle: saline
[5] = dose: 50.0 mg/kg/injection, schedule: Q01DX009 (ip), vehicle: saline
[6] = dose: 50.0 mg/kg/injection, schedule: Q04DX003 (ip), vehicle: saline
[7] = dose: 100.0 mg/kg/injection, schedule: Q01DX001 (ip), vehicle: saline
[8] = dose: 100.0 mg/kg/injection, schedule: Q01DX009 (ip), vehicle: saline
[9] = dose: 100.0 mg/kg/injection, schedule: Q04DX003 (ip), vehicle: saline
[10] = dose: 200.0 mg/kg/injection, schedule: Q04DX003 (ip), vehicle: saline
[11] = dose: 400.0 mg/kg/injection, schedule: Q04DX003 (ip), vehicle: saline
[12] = dose: 100.0 mg/kg/injection, schedule: Q04DX003 (ip), vehicle: Klucel (hydroxypropylcellulose) (HPC)
[13] = dose: 200.0 mg/kg/injection, schedule: Q04DX003 (ip), vehicle: Klucel (hydroxypropylcellulose) (HPC)
[14] = dose: 400.0 mg/kg/injection, schedule: Q04DX003 (ip), vehicle: Klucel (hydroxypropylcellulose) (HPC)

Measured: T/C

CCOCN(C)C
inactive: [1] 103 % of control | [2] 103 % of control | [3] 100 % of control | dose: 44.0 mg/kg/injection, schedule: Q01DX009 (ip), vehicle: saline 110 % of control | [4] 94 % of control | [5] 105 % of control | [6] 100 % of control | dose: 66.0 mg/kg/injection, schedule: Q01DX009 (ip), vehicle: saline 103 % of control | [7] 97 % of control and 107 % of control | [8] 97 % of control | [9] 105 % of control

Cc1cccc(-c2nc(N)nc(N)n2)c1
inactive: dose: 75.0 mg/kg/injection, schedule: Q01DX001 (ip), vehicle: saline 106 % of control | dose: 150.0 mg/kg/injection, schedule: Q01DX001 (ip), vehicle: saline 104 % of control | dose: 300.0 mg/kg/injection, schedule: Q01DX001 (ip), vehicle: saline 101 % of control

O=C(O)c1nccc2c(O)cccc12
inactive: [9] 93 % of control | [10] 102 % of control | [11] 101 % of control

COc1ccc(S(=O)(=O)/N=C(/C2CC3=CCC4C5CCC(=O)C5(C)CC(=O)C4C3(C)C2)N2CCCC2)cc1 (configuration not stated)
inactive: dose: 100.0 mg/kg/injection, schedule: Q01DX001 (ip), vehicle: other 103 % of control | dose: 200.0 mg/kg/injection, schedule: Q01DX001 (ip), vehicle: other 108 % of control | dose: 400.0 mg/kg/injection, schedule: Q01DX001 (ip), vehicle: other 98 % of control

Cn1cnccc1=O
inactive: dose: 50.0 mg/kg/injection, schedule: Q01DX009 (ip), vehicle: water 102 % of control | dose: 100.0 mg/kg/injection, schedule: Q01DX009 (ip), vehicle: water 104 % of control | dose: 100.0 mg/kg/injection, schedule: Q04DX003 (ip), vehicle: water 114 % of control | dose: 120.0 mg/kg/injection, schedule: Q04DX003 (ip), vehicle: water 98 % of control | dose: 200.0 mg/kg/injection, schedule: Q01DX009 (ip), vehicle: water 115 % of control | dose: 200.0 mg/kg/injection, schedule: Q04DX003 (ip), vehicle: water 100 % of control and 111 % of control | dose: 333.0 mg/kg/injection, schedule: Q04DX003 (ip), vehicle: water 95 % of control | dose: 400.0 mg/kg/injection, schedule: Q01DX009 (ip), vehicle: water 115 % of control | dose: 400.0 mg/kg/injection, schedule: Q04DX003 (ip), vehicle: water 106 % of control

O=[N+]([O-])c1cc2c3ccccc3c(F)cc2c2ccccc12
inactive: dose: 100.0 mg/kg/injection, schedule: Q01DX009 (ip), vehicle: Klucel (hydroxypropylcellulose) (HPC) 98 % of control | [12] 96 % of control | dose: 200.0 mg/kg/injection, schedule: Q01DX009 (ip), vehicle: Klucel (hydroxypropylcellulose) (HPC) 98 % of control | [13] 91 % of control | dose: 400.0 mg/kg/injection, schedule: Q01DX009 (ip), vehicle: Klucel (hydroxypropylcellulose) (HPC) 98 % of control | [14] 101 % of control

CC12CCCCC1CC/C(=C\c1ccc(Cl)cc1)C2=O (configuration not stated)
inactive: [7] 114 % of control | dose: 200.0 mg/kg/injection, schedule: Q01DX001 (ip), vehicle: saline 95 % of control | dose: 400.0 mg/kg/injection, schedule: Q01DX001 (ip), vehicle: saline 92 % of control

O=c1nc(-c2ccccc2)c(-c2ccccc2)n[nH]1
inactive: dose: 50.0 mg/kg/injection, schedule: Q01DX009 (ip), vehicle: saline with Tween-80 91 % of control | dose: 100.0 mg/kg/injection, schedule: Q01DX009 (ip), vehicle: saline with Tween-80 98 % of control | [12] 107 % of control | dose: 200.0 mg/kg/injection, schedule: Q01DX009 (ip), vehicle: saline with Tween-80 98 % of control | [13] 100 % of control | [14] 102 % of control

Cc1ccc2c(ccc(/C=C\c3cc(C)c4cccnc4c3O)[n+]2C)c1
inactive: dose: 100.0 mg/kg/injection, schedule: Q01DX001 (ip), vehicle: carboxymethylcellulose (CMC) 114 % of control

CCC(=O)P(=O)(OC)OC
inactive: [9] 102 % of control | [10] 102 % of control | [11] 95 % of control

CNNC(=O)c1cccnc1
inactive: [1] 95 % of control | [2] 95 % of control and 98 % of control | [3] 105 % of control | [4] 100 % of control | [5] 95 % of control and 100 % of control | [6] 104 % of control | [7] 102 % of control | [8] 95 % of control and 98 % of control | [9] 98 % of control

From PubChem BioAssay AID248 (DTP/NCI, 2004)
